{"source": "patent US20100298270A1", "about": "“Novel Compounds and Methods of Using Them” (SYNDAX PHARMACEUTICALS, INC., priority 2007, published 2010)"}
{"smiles": "O=C(NCc1ccn(O)c(=O)c1)OCc1cccnc1", "note": "[Example 14, Pyridin-3-ylmethyl (1-hydroxy-2-oxo-1,2-dihydropyridin-4-yl)methylcarbamate]", "values": [{"measurement": "melting point", "result": 145, "unit": "°C"}]}
